Test system: patients with a single variant in the ChAT gene (340L>F or 510R>Q)
Test: Clinical response to medications prior to sequencing in patients carrying a ChAT gene variant
Conditions: 2/2 patients, dampens opposing sympathetic activity

CC(C)NCC(O)COc1cccc2ccccc12 (stereo not shown) [propranolol]
clinical response: clinical improvement
